Publication PMC7090077, “Developing a highly efficient hydroxytyrosol whole-cell catalyst by de-bottlenecking rate-limiting steps” (Nature Communications, 2020)
One block for each molecule: values may come before it.

Experiments:
[1] = target: T1, HpaBC (Escherichia coli, UniProt Q57160); assay: specific activity, product formation by HPLC; format: biochemical; settings: wild-type
T1 construct: gene hpaB; HpaB and HpaC purified on Ni-NTA; two-component flavin-dependent monooxygenase; with 4-hydroxyphenylacetate 3-monooxygenase reductase component
T1 sequence (Q57160 1-520): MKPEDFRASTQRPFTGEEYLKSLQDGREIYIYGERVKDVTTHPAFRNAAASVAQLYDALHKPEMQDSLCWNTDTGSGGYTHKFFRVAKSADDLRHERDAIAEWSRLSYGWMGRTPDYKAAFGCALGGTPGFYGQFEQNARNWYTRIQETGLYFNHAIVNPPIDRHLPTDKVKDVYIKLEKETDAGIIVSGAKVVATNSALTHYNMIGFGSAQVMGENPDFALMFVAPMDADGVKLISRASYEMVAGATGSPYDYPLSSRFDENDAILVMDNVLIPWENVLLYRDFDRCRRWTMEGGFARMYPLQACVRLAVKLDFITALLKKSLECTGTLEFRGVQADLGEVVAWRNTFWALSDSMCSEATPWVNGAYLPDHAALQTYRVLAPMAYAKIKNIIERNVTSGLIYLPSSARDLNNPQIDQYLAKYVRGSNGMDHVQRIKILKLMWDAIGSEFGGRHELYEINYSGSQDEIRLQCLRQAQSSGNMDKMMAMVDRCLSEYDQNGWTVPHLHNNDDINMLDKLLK

[2] = target: T2, VanR (Corynebacterium glutamicum, UniProt Q8NN31, R148L/Y103L/Y168M); assay: RFP reporter induction in E. coli BW25113 with plasmid pVanR; format: cell-based
T2 construct: gene Cgl2382; full length; GST fusion from pGEX-6p-1 in E. coli BL21(DE3), GST tag cleaved with PreScission protease; homodimer, ligand pocket at subunit interface
T2 sequence (Q8NN31 entry or part of it Y103L/R148L/Y168M): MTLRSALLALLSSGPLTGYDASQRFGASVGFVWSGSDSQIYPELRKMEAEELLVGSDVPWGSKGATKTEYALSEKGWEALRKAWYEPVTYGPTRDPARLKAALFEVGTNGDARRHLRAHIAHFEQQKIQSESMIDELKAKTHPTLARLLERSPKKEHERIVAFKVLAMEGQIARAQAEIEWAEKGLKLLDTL

[3] = target: T3, VanR (Corynebacterium glutamicum, UniProt Q8NN31); assay: isothermal titration calorimetry; format: binding
T3 construct: gene Cgl2382; full length; GST fusion from pGEX-6p-1 in E. coli BL21(DE3), GST tag cleaved with PreScission protease; homodimer, ligand pocket at subunit interface
T3 sequence (Q8NN31 entry or part of it): as the sequence (Q8NN31 entry or part of it Y103L/R148L/Y168M) above, with L103Y, L148R, M168Y counted along it

Structure (SMILES): O=C(O)Cc1ccc(O)cc1 [4-hydroxyphenylacetate]
specific activity [1]: the hydroxylation activity of these HpaBC mutants on the original substrate 4-HPA reduced considerably

EC50 [2]: ~500 µM
Structure (SMILES): OCCc1ccc(O)c(O)c1 [hydroxytyrosol]

Kd [3]: 6.99 µM
Structure (SMILES): COc1cc(C(=O)O)ccc1O [vanillic acid]
